According to US20240124441A1, “POLYMORPH OF LATREPIRDINE DIHYDROCHLORIDE” (BIGESPAS LTD., priority 2021, published 2024):
Where two headings read alike, the source gives them in different places.

Legend:
[1] = Bioavailability study: Latrepirdine concentration in blood serum after oro-gastric gavage
Protocol: (§1) Those crystalline polymorphs and DMB-I were used in an animal study to evaluate absorption of crystalline forms of Latrepirdine from gastrointestinal tract into blood serum and brain tissues of the animals. Male Wistar rats were used in animal study. Rats were randomly divided into 5 groups, each group containing 28 animals, for administration of respective polymorphic forms of Latrepirdine. Respective polymorphic form of Latrepirdine was administered by oro-gastric gavage as a suspension in corn oil at a dose of 10 mg/kg. Animals were euthanized at 15, 30, 60, and 120 min after administration of Latrepirdine (7 animals at each timepoint) followed by collection of blood serum and brain tissue samples that were analyzed for Latrepirdine content by LCMS. Analyses were performed using Prominence LCMS-850 equipped with Kinetex C18 Phenomenex column. Statistical bi-factorial ANOVA analysis of analytical data was performed using Statistica-7.1. software.

[2] = Bioavailability study: Latrepirdine concentration in brain tissue after oro-gastric gavage; conditions: for Concentration of Latrepirdine in brain tissue: 10 mg/kg oro-gastric gavage, suspension in corn oil, rat, 10 mg/kg
Protocol: as §1

[3] = rat, in vivo, po
Protocol: as §1

[4] = rat, in vivo, po; remark: listed apart in the source
Protocol: as §1

With Cc1ccc2c(c1)c1c(n2CCc2ccc(C)nc2)CCN(C)C1 [Polymorph A, 2,8-dimethyl-5-[2-(6-methylpyridin-3-yl)ethyl]-3,4-dihydro-1H-pyrido[4,3-b]indole] the “Concentration of Latrepirdine in blood serum” value (from here on “Concentration … in blood serum”) ([1]; 15 min after administration, 10 mg/kg oro-gastric gavage, suspension in corn oil, rat, listed as A, 10 mg/kg) was 2.0 ng/mL, the “Concentration … in blood serum” value ([1]; 60 min after administration, 10 mg/kg oro-gastric gavage, suspension in corn oil, rat, listed as A, 10 mg/kg) was 3.9 ng/mL and the “Concentration … in blood serum” value ([1]; 120 min after administration, 10 mg/kg oro-gastric gavage, suspension in corn oil, rat, listed as A, 10 mg/kg) was 2.0 ng/mL. The concentration at 30 min ([1]; male, Wistar, rat, serum, oral, 10 mg/kg, Concentration of Latrepirdine in blood serum, 30 min after administration, 10 mg/kg oro-gastric gavage, suspension in corn oil, rat) was 7 ng/mL, the “Concentration of Latrepirdine in brain tissue” value (shortened to “Concentration … in brain tissue”) ([2]; 15 min after administration, listed as A) was 22.4 ng/mL and the “Concentration … in brain tissue” value ([2]; 30 min after administration, listed as A) was 5.6 ng/mL. For the same compound, the “Concentration … in brain tissue” value ([2]; 60 min after administration, listed as A) was 76.8 ng/mL and the “Concentration … in brain tissue” value ([2]; 120 min after administration, listed as A) was 24.4 ng/mL.

With Cc1ccc2c(c1)c1c(n2CCc2ccc(C)nc2)CCN(C)C1 [Polymorph F, 2,8-dimethyl-5-[2-(6-methylpyridin-3-yl)ethyl]-3,4-dihydro-1H-pyrido[4,3-b]indole] the “Concentration … in blood serum” value ([1]; 15 min after administration, 10 mg/kg oro-gastric gavage, suspension in corn oil, rat, listed as F, 10 mg/kg) was 4.8 ng/mL, the “Concentration … in blood serum” value ([1]; 30 min after administration, 10 mg/kg oro-gastric gavage, suspension in corn oil, rat, listed as F, 10 mg/kg) was 6.3 ng/mL and the “Concentration … in blood serum” value ([1]; 60 min after administration, 10 mg/kg oro-gastric gavage, suspension in corn oil, rat, listed as F, 10 mg/kg) was 9.4 ng/mL. For the same compound, the “Concentration … in blood serum” value ([1]; 120 min after administration, 10 mg/kg oro-gastric gavage, suspension in corn oil, rat, listed as F, 10 mg/kg) was 3.6 ng/mL, the “Concentration … in brain tissue” value ([2]; 15 min after administration, listed as F) was 20.2 ng/mL and the “Concentration … in brain tissue” value ([2]; 30 min after administration, listed as F) was 32.2 ng/mL. For the same compound, the “Concentration … in brain tissue” value ([2]; 60 min after administration, listed as F) was 68.5 ng/mL and the “Concentration … in brain tissue” value ([2]; 120 min after administration, listed as F) was 45.1 ng/mL.

In the case of Cc1ccc2c(c1)c1c(n2CCc2ccc(C)nc2)CCN(C)C1 [Polymorph C, 2,8-dimethyl-5-[2-(6-methylpyridin-3-yl)ethyl]-3,4-dihydro-1H-pyrido[4,3-b]indole], the “Concentration … in blood serum” value ([1]; 15 min after administration, 10 mg/kg oro-gastric gavage, suspension in corn oil, rat, listed as C, 10 mg/kg) is reported as 7.4 ng/mL, the “Concentration … in blood serum” value ([1]; 30 min after administration, 10 mg/kg oro-gastric gavage, suspension in corn oil, rat, listed as C, 10 mg/kg) is reported as 6.8 ng/mL and the “Concentration … in blood serum” value ([1]; 60 min after administration, 10 mg/kg oro-gastric gavage, suspension in corn oil, rat, listed as C, 10 mg/kg) is reported as 6.7 ng/mL. For the same compound, the “Concentration … in blood serum” value ([1]; 120 min after administration, 10 mg/kg oro-gastric gavage, suspension in corn oil, rat, listed as C, 10 mg/kg) was 7.0 ng/mL, the “Concentration … in brain tissue” value ([2]; 15 min after administration, listed as C) was 25.1 ng/mL and the “Concentration … in brain tissue” value ([2]; 30 min after administration, listed as C) was 15.0 ng/mL. For the same compound, the “Concentration … in brain tissue” value ([2]; 60 min after administration, listed as C) was 32.1 ng/mL and the “Concentration … in brain tissue” value ([2]; 120 min after administration, listed as C) was 39.1 ng/mL.

With Cc1ccc2c(c1)c1c(n2CCc2ccc(C)nc2)CCN(C)C1 [Polymorph B, 2,8-dimethyl-5-[2-(6-methylpyridin-3-yl)ethyl]-3,4-dihydro-1H-pyrido[4,3-b]indole] the “Concentration … in blood serum” value ([1]; 15 min after administration, 10 mg/kg oro-gastric gavage, suspension in corn oil, rat, listed as B, 10 mg/kg) was 5.9 ng/mL, the “Concentration … in blood serum” value ([1]; 30 min after administration, 10 mg/kg oro-gastric gavage, suspension in corn oil, rat, listed as B, 10 mg/kg) was 5.6 ng/mL and the “Concentration … in blood serum” value ([1]; 60 min after administration, 10 mg/kg oro-gastric gavage, suspension in corn oil, rat, listed as B, 10 mg/kg) was 7.4 ng/mL. The “Concentration … in blood serum” value ([1]; 120 min after administration, 10 mg/kg oro-gastric gavage, suspension in corn oil, rat, listed as B, 10 mg/kg) was 1.0 ng/mL, the “Concentration … in brain tissue” value ([2]; 15 min after administration, listed as B) was 23.5 ng/mL and the “Concentration … in brain tissue” value ([2]; 30 min after administration, listed as B) was 34.2 ng/mL. For the same compound, the “Concentration … in brain tissue” value ([2]; 60 min after administration, listed as B) was 54.4 ng/mL and the “Concentration … in brain tissue” value ([2]; 120 min after administration, listed as B) was 29.7 ng/mL.

With Cc1ccc2c(c1)c1c(n2CCc2ccc(C)nc2)CCN(C)C1 [Polymorph DMB-I, 2,8-dimethyl-5-[2-(6-methylpyridin-3-yl)ethyl]-3,4-dihydro-1H-pyrido[4,3-b]indole] the “Median values of Cmax compared among the five tested polymorphic forms” value [3] was “highest value”, the “Median values of Cmax compared among the five tested polymorphic forms” value [4] was “highest value” and the “Concentration … in blood serum” value ([1]; 15 min after administration, 10 mg/kg oro-gastric gavage, suspension in corn oil, rat, listed as DMB-I, 10 mg/kg) was 12.8 ng/mL. The “Concentration … in blood serum” value ([1]; 30 min after administration, 10 mg/kg oro-gastric gavage, suspension in corn oil, rat, listed as DMB-I, 10 mg/kg) was 10.0 ng/mL, the “Concentration … in blood serum” value ([1]; 60 min after administration, 10 mg/kg oro-gastric gavage, suspension in corn oil, rat, listed as DMB-I, 10 mg/kg) was 9.7 ng/mL and the “Concentration … in blood serum” value ([1]; 120 min after administration, 10 mg/kg oro-gastric gavage, suspension in corn oil, rat, listed as DMB-I, 10 mg/kg) was 10.4 ng/mL. For the same compound, the “Cmax exceeds the Cmax of other polymorphic forms by” value ([1]; blood plasma, intragastric administration, versus the other four polymorphic forms) was 12-240%, the Tmax ([1]; male, Wistar, rat, plasma, po, 10 mg/kg) was 15 min and the “Concentration … in brain tissue” value ([2]; 15 min after administration, listed as DMB-I) was 45.1 ng/mL. The “Concentration … in brain tissue” value ([2]; 30 min after administration, listed as DMB-I) was 26.8 ng/mL, the “Concentration … in brain tissue” value ([2]; 60 min after administration, listed as DMB-I) was 106.0 ng/mL and the “Concentration … in brain tissue” value ([2]; 120 min after administration, listed as DMB-I) was 49.8 ng/mL. The “Cmax exceeds the Cmax of other polymorphic forms by” value ([2]; brain tissue, intragastric administration, versus the other four polymorphic forms) was 32-260%.
